According to patent US11059815B2, “Synthesis of small molecule histone deacetylase 6 degraders, compounds formed thereby, and pharmaceutical compositions containing them” (Wisconsin Alumni Research Foundation, priority 2018, dated 2021):
Entries after “also recorded” stand apart in the source; their conditions may differ. Each block holds one compound with its values, some of them ahead of it.

Target: T1, HDAC6 (Homo sapiens, UniProt Q9UBN7)
T1 construct: endogenous in cells; host or cells: MM1S (ATCC CRL-2974)
T1 sequence (Q9UBN7 1-1215): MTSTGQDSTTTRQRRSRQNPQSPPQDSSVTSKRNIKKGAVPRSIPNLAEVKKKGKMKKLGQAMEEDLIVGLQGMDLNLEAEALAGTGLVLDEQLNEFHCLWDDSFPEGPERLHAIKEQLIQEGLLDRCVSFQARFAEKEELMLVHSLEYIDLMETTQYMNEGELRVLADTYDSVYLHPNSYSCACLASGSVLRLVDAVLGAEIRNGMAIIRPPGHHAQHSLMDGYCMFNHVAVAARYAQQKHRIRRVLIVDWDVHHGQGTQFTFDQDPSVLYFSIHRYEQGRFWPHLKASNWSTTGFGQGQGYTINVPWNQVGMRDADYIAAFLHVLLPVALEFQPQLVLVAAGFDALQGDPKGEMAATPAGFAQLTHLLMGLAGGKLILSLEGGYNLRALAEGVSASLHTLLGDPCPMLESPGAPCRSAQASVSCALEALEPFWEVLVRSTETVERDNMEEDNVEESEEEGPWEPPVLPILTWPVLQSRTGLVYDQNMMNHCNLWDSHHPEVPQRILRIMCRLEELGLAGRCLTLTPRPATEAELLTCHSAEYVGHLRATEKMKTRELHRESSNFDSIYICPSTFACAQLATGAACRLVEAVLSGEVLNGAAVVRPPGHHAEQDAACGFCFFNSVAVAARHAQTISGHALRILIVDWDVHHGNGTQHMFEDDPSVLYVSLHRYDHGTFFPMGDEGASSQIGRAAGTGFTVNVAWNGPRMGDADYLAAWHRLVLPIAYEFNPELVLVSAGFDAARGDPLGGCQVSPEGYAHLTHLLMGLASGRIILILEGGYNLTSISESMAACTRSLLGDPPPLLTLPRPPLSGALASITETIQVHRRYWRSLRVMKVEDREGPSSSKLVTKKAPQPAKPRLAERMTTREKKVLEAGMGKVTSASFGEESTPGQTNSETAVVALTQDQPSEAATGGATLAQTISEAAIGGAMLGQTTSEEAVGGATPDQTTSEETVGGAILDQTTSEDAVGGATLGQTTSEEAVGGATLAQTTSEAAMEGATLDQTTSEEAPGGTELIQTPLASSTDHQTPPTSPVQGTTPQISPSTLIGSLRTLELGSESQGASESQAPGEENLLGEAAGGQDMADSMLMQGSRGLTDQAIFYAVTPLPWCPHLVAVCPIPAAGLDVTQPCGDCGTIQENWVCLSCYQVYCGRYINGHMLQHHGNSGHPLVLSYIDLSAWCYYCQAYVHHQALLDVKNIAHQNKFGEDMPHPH
Experiment: Western blot of HDAC6 in MM1S cells
Type: cell-based
Conditions: for HDAC6 degradation activity of negative controls by western blot: data not shown
Experimental: FIGS. 10A and 10B are western blot analysis of MM1S cells treated with selected candidates from C4-lined series (FIG. 10A) and C5-lined series (FIG. 10B) for 6 h.
FIGS. 12A, 12B, and 12C are a series of western blots showing that degrader 12d selectively promotes HDAC6 degradation in MM1S cells.
FIGS. 13A and 13B are western blot analysis of MM1S cells with pre-treatment of E3 ligase ligand pomalidomide, HDAC6 inhibitor Next-A or NAE inhibitor MLN 4924 (FIG. 13A) or pre-treatment of proteasome inhibitor MG132 or Bortezomib (FIG. 13B) or vehicle (DMSO) for 1 h and it is followed by the treatment of 100 nM 2d or vehicle (DMSO) for 6 h.
FIG. 16 is a western blot of selected candidate compounds having longer linkers. MM1S cells were treated with 100 nM degraders for 6 hours and analyzed by western blot.
See FIG. 10A and FIG. 10B to confirm the ELISA results. Class II HDAC4 was selected for comparison. For selected compounds from C4- or C5-linked series, all of them presented maximal effects at 100 nM and degraded significant amount of HDAC6 at 10 nM. […] The results from Western blot are consistent with the screening results by ELISA.
To evaluate the activity and selectivity of 12d, a full dose response experiment was performed with compound concentrations ranging from 0.3 nM to 10 μM in MM1S cells (FIG. 12A) for several HDACs, IKZFs, and Ac-tubulin. […] Degrader 12d reduced HDAC6 protein content at as low as 3 nM and achieved maximal effects around 30 nM. […] See Douglass et al. 2013, supra. The degradation of IKZFs started from 30 nM and was dose-dependent. It is interesting to see the more efficient degradation of HDAC6, which requires the formation of ternary complex, than that of IKZFs, which only requires the formation of binary complex. In addition to the distinct mechanism, the different turnover rates of HDAC6 and IKZFs may also contribute to the observed results. The acetylated tubulin level was also dose-dependent. At higher concentrations (3 μM and 10 μM), tubulin acetylation was not […] in response to recovered HDAC6 expression by “hook effect”. The elevated tubulin acetylation at higher concentrations was likely due to the combination of HDAC6 degradation and HDAC6 inhibition.
To probe the efficiency of 12d, MM1S was treated with 100 nM 12d and the change of HDAC6 protein level was monitored by time. The HDAC6 degradation started around 1 h and reached maximal degradation effect at 4 h. The degradation of IKZFs was only observed after 4 h. Meanwhile, HDAC1 was not affected and the acetylation of tubulin was accumulated by time. To study the re-synthesis rate of HDAC6 after degradation, “wash-out” experiments were performed (data not shown). Cells were treated with 100 nM 12d for 6 h and then washed with PBS to remove remaining degraders. HDAC6 expression was monitored for 48 h. […] Selected degraders were also tested in other cell lines and they are effective among all tested cancer cell lines.
To support the involvement of ubiquitination-proteasome system for the decrease of HDAC6 protein level, the degrader was co-treated with binding competitors or pathway blockers. […] Moreover, it also confirmed the role of the pomalidomide moiety in modulating IKZFs. […] Additionally, proteasome inhibitor MG132 and Bortezomib were used to block the down-stream proteasome degradation. […] Acetylated tubulin level was suppressed as well. This confirms that HDAC6 degradation is responsible for the acetylation of its substrates rather than inhibition by the “warhead” moiety. To exclude the possible transcriptional impact by degraders, qRT-PCR was used to examine the mRNA level of HDAC6 and related genes (data not shown). […] This is consistent with the hypothesis that the cellular knockdown of HDAC6 is due to direct protein degradation, not by transcriptional downregulation. […]

[1] = 1 h pre-treatment, then 100 nM degrader 6 h, MM1S
[2] = 12d dose response 0.3 nM to 10 μM, MM1S

HDAC6 degradation by western blot (10 nM, 6 h, MM1S): degraded much less HDAC6
SMILES: O=C(CCCCCCC(=O)N/N=C/c1ccc(OCCOCCOCCn2cc(CNc3cccc4c3C(=O)N(C3CCC(=O)NC3=O)C4=O)nn2)cc1)NO (centres unmarked) [Compound 1]

time at which reduction of HDAC6 expression started (time-course, MM1S): 30 min | time of maximal HDAC6 degradation (time-course, MM1S): around 4 h
SMILES: CCCCN(Cc1ccc(C(=O)NO)cc1)C(=O)Nc1ccc(OCCCCCn2cc(CNc3cccc4c3C(=O)N(C3CCC(=O)NC3=O)C4=O)nn2)cc1 (centres unmarked) [Compound 2]

HDAC6 recovery after wash-out (100 nM for 6 h, washed with PBS, monitored within 48 h): not fully recovered | time at which HDAC6 degradation started (100 nM, MM1S): around 1 h | time of maximal HDAC6 degradation effect (100 nM, MM1S): 4 h | HDAC6 level on co-treatment with pomalidomide or Next-A [1]: recovered HDAC6 level | degradation on co-treatment with proteasome inhibitor MG132 or Bortezomib [1]: no degradation of HDAC6 | concentration at which hook effect was observed [2]: ≥ 3 µM | concentration of maximal effects on HDAC6 [2]: around 30 nM | lowest concentration reducing HDAC6 protein content [2]: 3 nM
SMILES: CCCCN(Cc1ccc(C(=O)NO)cc1)C(=O)Nc1ccc(OCCCCCn2cc(CNc3cccc4c3C(=O)N(C3CCC(=O)NC3=O)C4=O)nn2)cc1 (centres unmarked) [Compound 12d, 4-((1-butyl-3-(4-((5-(4-(((2-(2,6-dioxopiperidin-3-yl)-1,3-dioxoisoindolin-4-yl)amino)methyl)-1H-1,2,3-triazol-1-yl)pentyl)oxy)phenyl)ureido)methyl)-N-hydroxybenzamide]
degradation on co-treatment with NAE inhibitor MLN4924 [1]: abolishing the degradation of both HDAC6 and IKZFs

SMILES: CCCCN(Cc1ccc(C(=O)OC)cc1)C(=O)Nc1ccc(OCCCCCn2cc(CNc3cccc4c3C(=O)N(C3CCC(=O)NC3=O)C4=O)nn2)cc1 (centres unmarked) [Compound 13, Methyl 4-((1-butyl-3-(4-((5-(4-(((2-(2,6-dioxopiperidin-3-yl)-1,3-dioxoisoindolin-4-yl)amino)methyl)-1H-1,2,3-triazol-1-yl)pentyl)oxy)phenyl)ureido)methyl)benzoate]
HDAC6 degradation activity of negative controls by western blot (MM1S): inactive; also recorded: limited HDAC6 degradation

HDAC6 degradation activity of negative controls by western blot (MM1S): inactive
SMILES: CCCCN(Cc1ccc(C(=O)NO)cc1)C(=O)Nc1ccc(OCCCCCn2cc(CNc3cccc4c3C(=O)N(C3CCC(=O)N(C)C3=O)C4=O)nn2)cc1 (centres unmarked) [Compound 15, 4-((1-butyl-3-(4-((5-(4-(((2-(1-methyl-2,6-dioxopiperidin-3-yl)-1,3-dioxoisoindolin-4-yl)amino)methyl)-1H-1,2,3-triazol-1-yl)pentyl)oxy)phenyl)ureido)methyl)-N-hydroxybenzamide]
